Non-standard residues stand in square brackets, D forms with d. Residues, ends and D or L forms follow the SMILES beside them. dNMeCha = CN[C@H](CC1CCCCC1)C(=O)O
Tests used:
[1] = Epimerization inhibition by sodium bisulfite (compound of Example 75); assay type: physicochemical; settings: pH 7.4, 50° C.
Protocol: A 55.55 mM aqueous sodium phosphate solution (adjusted to pH 7.4 with sodium hydroxide) was mixed with an aqueous 27.77 mM sodium bisulfite/27.77 mM sodium phosphate solution (adjusted to pH 7.4 with sodium hydroxide) and water in various ratios to produce buffers containing 0, 5.55, 11.11, 16.66, 22.22 and 27.77 mM sodium bisulfite. A 0.9 ml aliquot of each sodium bisulfite/phosphate buffer was added to separate 13×100 mm culture tubes and placed in a 50° C. Tempblok® heater for 15 minutes. To each culture tube 0.1 ml of a 1 mg/ml aqueous solution of the compound of Example 75 was added and mixed well. […] These samples were allowed to react for 30 minutes at 60° C. and were then evaporated to dryness with nitrogen in a 55° C. N-Evap. The residue was dissolved in 1 ml of methanol and transferred to Varian Si BondElut SPE columns (1 ml) previously conditioned with 2 ml of water then 2 ml of methanol. The dissolved samples were pulled through slowly with a slight vaccum, and the sorbent layer was then washed with 2-1 ml volumes of methanol. The SPE columns were then dried at full vacuum (~25 in. Hg) then 500 μl of 500 mM potassium chloride was passed through the SPE columns. The compounds of interest were eluted with 300 μl of methanol/500 mM potassium chloride (1:1, v/v) into 12×75 mm culture tubes. These eluates were analyzed by the HPLC system described below.
The mobile phase was acetonitrile/methanol/500 mM ammonium acetate pH 7 (3:3:4, v/v) pumped at 1 ml/min with a Shimadzu LC-10AD pump. The column was a Zorbax SB-C8 150×4.6 mm maintained at 40° C. with a Jones Chromatography 7960 column heater. Fifty microliter injections were made with a Waters WISP 712 autosampler. Detection was accomplished with a Kratos 783 UV detector at 360 nm. The percentage of the DLD isomer was calculated using the peak areas of the DLL and DLD isomers in the chromatograms and the following equation: [formula]

human plasma [2] = assay: Human plasma anticoagulation, activated partial thromboplastin time (APTT); assay type: biochemical
Method in brief: (§1)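 Compounds added across a wide concentration range to human plasma; APTT, PT and TT clotting times measured on a coagulation instrument, bovine thrombin used for plasma assays. Concentration doubling clotting time estimated by linear extrapolation.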

human plasma [3] = assay: Human plasma anticoagulation, thrombin time (TT); assay type: biochemical
Method in brief: as §1

human plasma [4] = assay: Human plasma anticoagulation, prothrombin time (PT); assay type: biochemical
Method in brief: as §1

factor Xa = target: T1, factor Xa (Homo sapiens, UniProt P00742); assay: Serine protease inhibition (Kass), factor Xa; assay type: biochemical
T1 construct: Human factors X, Xa, IXa, XIa, and XIIa are purchased from Enzyme Research Laboratories; purchased Enzyme Research Laboratories, South Bend, Ind
Method in brief: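 Chromogenic p-nitroanilide substrate assays run as for human thrombin; trypsin with N-Benzoyl-Phe-Val-Arg-p-nitroanilide, human factor Xa with N-Benzoyl-Ile-Glu-Gly-Arg-p-nitroanilide. Values are association constants (Kass).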

T1 sequence (P00742 235-488 limits assumed): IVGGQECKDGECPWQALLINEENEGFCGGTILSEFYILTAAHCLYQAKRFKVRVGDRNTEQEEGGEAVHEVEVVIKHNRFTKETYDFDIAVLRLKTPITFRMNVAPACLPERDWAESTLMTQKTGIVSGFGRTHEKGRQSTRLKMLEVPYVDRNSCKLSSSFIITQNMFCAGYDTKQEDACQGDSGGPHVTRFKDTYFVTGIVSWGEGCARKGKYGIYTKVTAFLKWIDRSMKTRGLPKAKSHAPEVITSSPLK
T1 sequence (P00742 41-179 partner limits assumed): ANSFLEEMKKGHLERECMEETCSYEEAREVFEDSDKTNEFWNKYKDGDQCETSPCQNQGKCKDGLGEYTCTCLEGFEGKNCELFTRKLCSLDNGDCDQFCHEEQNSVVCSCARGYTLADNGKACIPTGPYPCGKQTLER

CN[C@H](CC1CCCCC1)C(=O)N1CCC[C@H]1C(=O)N[C@H](C=O)CCCNC(=N)N.Cl [Example 75, N-methyl-D-cyclohexylalanyl-L-Prolinyl-L-Arginine Aldehyde Hydrochloride] (H-[dNMeCha]-Pro-Arg-aldehyde)
Percentage of DLD Isomer ([1]; sodium bisulfite 0 mM, 0 hr): 7.33%
Percentage of DLD Isomer ([1]; sodium bisulfite 0 mM, 0.5 hr): 31.91%
Percentage of DLD Isomer ([1]; sodium bisulfite 0 mM, 2 hr): 48.95%
Percentage of DLD Isomer ([1]; sodium bisulfite 0 mM, 3 hr): 50.21%
Percentage of DLD Isomer ([1]; sodium bisulfite 0 mM, 4 hr): 50.27%
Percentage of DLD Isomer ([1]; sodium bisulfite 0 mM, 6 hr): 50.03%
Percentage of DLD Isomer ([1]; sodium bisulfite 0 mM, 8 hr): 50.15%
Percentage of DLD Isomer ([1]; sodium bisulfite 0 mM, […]): 44.72%
Percentage of DLD Isomer ([1]; sodium bisulfite 5 mM, 0 hr): 7.35%
Percentage of DLD Isomer ([1]; sodium bisulfite 5 mM, 0.5 hr): 14.64%
Percentage of DLD Isomer ([1]; sodium bisulfite 5 mM, 2 hr): 34.64%
Percentage of DLD Isomer ([1]; sodium bisulfite 5 mM, 3 hr): 42.75%
Percentage of DLD Isomer ([1]; sodium bisulfite 5 mM, 4 hr): 47.21%
Percentage of DLD Isomer ([1]; sodium bisulfite 5 mM, 6 hr): 48.75%
Percentage of DLD Isomer ([1]; sodium bisulfite 5 mM, 8 hr): 49.61%
Percentage of DLD Isomer ([1]; sodium bisulfite 5 mM, […]): 24.74%
Percentage of DLD Isomer ([1]; sodium bisulfite 10 mM, 0 hr): 7.54%
Percentage of DLD Isomer ([1]; sodium bisulfite 10 mM, 0.5 hr): 10.79%
Percentage of DLD Isomer ([1]; sodium bisulfite 10 mM, 2 hr): 25.55%
Percentage of DLD Isomer ([1]; sodium bisulfite 10 mM, 3 hr): 35.08%
Percentage of DLD Isomer ([1]; sodium bisulfite 10 mM, 4 hr): 41.99%
Percentage of DLD Isomer ([1]; sodium bisulfite 10 mM, 6 hr): 50.73%
Percentage of DLD Isomer ([1]; sodium bisulfite 10 mM, 8 hr): 51.60%
Percentage of DLD Isomer ([1]; sodium bisulfite 10 mM, […]): 17.72%
Percentage of DLD Isomer ([1]; sodium bisulfite 15 mM, 0 hr): 8.37%
Percentage of DLD Isomer ([1]; sodium bisulfite 15 mM, 0.5 hr): 10.31%
Percentage of DLD Isomer ([1]; sodium bisulfite 15 mM, 2 hr): 21.41%
Percentage of DLD Isomer ([1]; sodium bisulfite 15 mM, 3 hr): 28.54%
Percentage of DLD Isomer ([1]; sodium bisulfite 15 mM, 4 hr): 35.26%
Percentage of DLD Isomer ([1]; sodium bisulfite 15 mM, 6 hr): 46.26%
Percentage of DLD Isomer ([1]; sodium bisulfite 15 mM, 8 hr): 50.58%
Percentage of DLD Isomer ([1]; sodium bisulfite 15 mM, […]): 15.19%
Percentage of DLD Isomer ([1]; sodium bisulfite 20 mM, 0 hr): 7.65%
Percentage of DLD Isomer ([1]; sodium bisulfite 20 mM, 0.5 hr): 9.90%
Percentage of DLD Isomer ([1]; sodium bisulfite 20 mM, 2 hr): 17.28%
Percentage of DLD Isomer ([1]; sodium bisulfite 20 mM, 3 hr): 23.70%
Percentage of DLD Isomer ([1]; sodium bisulfite 20 mM, 4 hr): 29.34%
Percentage of DLD Isomer ([1]; sodium bisulfite 20 mM, 6 hr): 43.32%
Percentage of DLD Isomer ([1]; sodium bisulfite 20 mM, 8 hr): 48.73%
Percentage of DLD Isomer ([1]; sodium bisulfite 20 mM, […]): 12.88%
Percentage of DLD Isomer ([1]; sodium bisulfite 25 mM, 0 hr): 8.16%
Percentage of DLD Isomer ([1]; sodium bisulfite 25 mM, 0.5 hr): 9.47%
Percentage of DLD Isomer ([1]; sodium bisulfite 25 mM, 2 hr): 14.78%
Percentage of DLD Isomer ([1]; sodium bisulfite 25 mM, 3 hr): 18.66%
Percentage of DLD Isomer ([1]; sodium bisulfite 25 mM, 4 hr): 24.34%
Percentage of DLD Isomer ([1]; sodium bisulfite 25 mM, 6 hr): 37.60%
Percentage of DLD Isomer ([1]; sodium bisulfite 25 mM, 8 hr): 46.26%
Percentage of DLD Isomer ([1]; sodium bisulfite 25 mM, […]): 11.42%
2 × Clotting time APTT (human plasma [2]): 420 ng/mL
2 × Clotting time TT (human plasma [3]): 18 ng/mL
2 × Clotting time PT (human plasma [4]): 720 ng/mL
Kass Xa (factor Xa): 5.6 L/mol × 10^6

Reference: patent publication US5436229A, “Bisulfite adducts of arginine aldehydes” (Eli Lilly and Company, priority 1994, dated 1995)
